Legend:
[1] = tested on: LDLR−/− mice, a CAVD mouse model; assay: Echocardiography (pulsed-wave Doppler) of heart valve function in CAVD mouse model; assay type: in vivo
Description: Animals. Mouse experiments were performed according to the guidelines of the National Institute of Health and the protocols approved by the Institutional Animal Care and Use Committee of Cornell University. The mice used were LDLR (low-density lipoprotein receptor)-/- mice from Jackson Labs (No. 2270). Mice were fed a high-fat diet (Harlan Teklad No. TD88137, 42% of calories from fat, 0.25% cholesterol). Age-matched C57BL6J mice were obtained from Jackson Laboratories (Bar Harbour, ME) for control study. Drug administration. The NFκB pathway was intervened by administering either BAY11-7082 (injected intraperitoneal 3 times per week at 5 mg/kg) or tetrahydrobiopterin (BH4) (oral gavage at 10 mg/kg/day) to LDLR/mice, for 8 weeks after giving them high fat diet for 20 weeks Echocardiography. Transthoracic echocardiography was performed under 2% isofluorane anaesthesia, with M[…] and MS5[…] probes connected to a Vevo 2100 system (VisualSonics). Heart valve function was assessed at 6 months and 8 months of age using according to established procedures. Mice were anesthetized using inhaled 2% isoflurane. Abdominal hair was removed using a chemical depilatory cream, and warmed ultrasound transmission gel was applied to the anterior thorax. Probes were applied in the long-axis and short-axis position to the chest. Transvalvular velocity and pressure gradients were captured using the pulsed-wave Doppler mode and manual tracing of >3 velocity time intervals on the resulting plots. In this work, the NFkB pathway was intervened by administering either BAY11-7082 (injected intraperitoneal 3 times per week at 5 mg/kg) or tetrahydrobiopterin (BH4) (oral gavage at 10 mg/kg/day) to LDLR^-/- mice, a CAVD mouse model, for another 8 weeks after starting them on high fat diet for 20 weeks (FIGS. 17A-17C). Cardiac hemodynamic parameters, such as aortic valve peak velocity and left ventricle ejection fraction, were measured using doppler ultrasound before and after BAYT 1-7082 and BH4 administration. […]

[2] = tested on: LDLR−/− mice, a CAVD mouse model; assay: Alizarin red staining for calcium contents on the aortic valves; assay type: in vivo; conditions: 8 weeks treatment after 20 weeks high fat diet
Description: Animals. Mouse experiments were performed according to the guidelines of the National Institute of Health and the protocols approved by the Institutional Animal Care and Use Committee of Cornell University. The mice used were LDLR (low-density lipoprotein receptor)−/− mice from Jackson Labs (No. 2270). Mice were fed a high-fat diet (Harlan Teklad No. TD88137, 42% of calories from fat, 0.25% cholesterol). Age-matched C57BL6J mice were obtained from Jackson Laboratories (Bar Harbour, ME) for control study. Drug administration. The NFκB pathway was intervened by administering either BAY11-7082 (injected intraperitoneal 3 times per week at 5 mg/kg) or tetrahydrobiopterin (BH4) (oral gavage at 10 mg/kg/day) to LDLR/mice, for 8 weeks after giving them high fat diet for 20 weeks Tissue staining and immunohistochemistry. Mouse hearts were isolated, perfused, fixed, embedded in paraffin, sectioned, and mounted. Alizarin red staining (ARS). Sections were deparaffinized and incubated in ARS stain for 5 minutes (1% Alizarin red in water, pH 4.2 adjusted by using 10% ammonium hydroxide in water). Sections were incubated in acetone for 30 seconds and then rinsed with a 1:1 solution of acetone and xylene. […] Cardiac hemodynamic parameters, such as aortic valve peak velocity and left ventricle ejection fraction, were measured using doppler ultrasound before and after BAYT 1-7082 and BH4 administration. […]

[3] = tested on: LDLR−/− mice, a CAVD mouse model; assay: Fibro-osteogenic gene profiling (Q-PCR) on aortic valve tissues; assay type: in vivo; conditions: 8 weeks treatment after 20 weeks high fat diet
Description: Animals. Mouse experiments were performed according to the guidelines of the National Institute of Health and the protocols approved by the Institutional Animal Care and Use Committee of Cornell University. The mice used were LDLR (low-density lipoprotein receptor)−/− mice from Jackson Labs (No. 2270). Mice were fed a high-fat diet (Harlan Teklad No. TD88137, 42% of calories from fat, 0.25% cholesterol). Age-matched C57BL6J mice were obtained from Jackson Laboratories (Bar Harbour, ME) for control study. Drug administration. The NFκB pathway was intervened by administering either BAY11-7082 (injected intraperitoneal 3 times per week at 5 mg/kg) or tetrahydrobiopterin (BH4) (oral gavage at 10 mg/kg/day) to LDLR/mice, for 8 weeks after giving them high fat diet for 20 weeks Q-PCR analysis. Mouse Aortic valve samples were homogenized, total RNA was isolated using Takarabio RNA, purified and further quantified via Nanodrop. […] Quantitative RT-PCR was performed on all samples using SYBR Green PCR master mix (Applied Biosystems, Foster City, CA) and a CFX96 or MiniOpticon Real-Time PCR Detection System (Bio-Rad, Hercules, CA). […] Cardiac hemodynamic parameters, such as aortic valve peak velocity and left ventricle ejection fraction, were measured using doppler ultrasound before and after BAYT 1-7082 and BH4 administration. […]

[4] = tested on: NFκB canonical signaling activity; conditions: acute cardiovascular injury, literature; cited from earlier work
Porcine aortic VEC = assay: VEC on 3D collagen hydrogels, calcification by Alizarin Red S staining and dye extraction; assay type: cell-based; conditions: OGM+TNFα 30 ng/mL, 14 days
Description: Primary Aortic Valve Cell Isolation and Culture. Porcine valves are a widely used analog for human adult valve endothelial and interstitial cells. Unlike mice, pigs develop atherosclerosis and valvular lesions without intervention, similar to humans. Large-scale culture of porcine valve cell populations is feasible due to ample tissue size/cell dissociation yields. […] Only VEC cultures with consistent CD31 and VE-cadherin (vascular endothelial cadherin) expression, cobblestone morphology, and nondetectable αSMA (alphasmooth muscle actin) expression were used. αSMA levels were measured via RT-PCR (>37 cycle threshold), Western blot, and immunofluorescence.
All reagents were obtained from Sigma Aldrich, St. Louis, MO, unless otherwise noted. […]
Hydrogel Calcification Analysis. To quantify calcified matrix developed in different experimental conditions, an Alizarin Red absorbance assay was implemented. […] The concentration of dye in solution was then quantified using absorbance spectroscopy at 405-nm wavelength. Samples absorbance readings were normalized to basal growth medium culture condition.

NFκB p65 = assay: p65 nuclear localization in VEC on 3D hydrogels (immunofluorescence); assay type: cell-based, porcine; conditions: 48 hour, OGM alone insufficient
Description: White arrows indicate cells with nuclear-positive signal. Scale bar is 20 μm. […] Asterisks indicate statistically significant groups (*: p<0.05).
3D Hydrogel Culture Model Preparation. Cellularized type II collagen hydrogels were prepared as previously described (Butcher et al., “Valvular Endothelial Cells Regulate the Phenotype of Interstitial Cells in Co-Culture: Effects of Steady Shear Stress,” Tissue Eng. 12:905-915 (2006), which is hereby incorporated by reference in its entirety)). Briefly, porcine aortic valve endothelial cells were topically seeded at 50,000 cell/cm^2 density, whereas porcine aortic valve interstitial cells were encapsulated within the neutralized collagen gel suspension (2 mg/mL) at 1,000,000 cells/mL density. Constructs were allowed to gel for 1 hour at 37° C., 5% CO2, and then cultured overnight in their respective basal-medium conditions. For osteogenic differentiation conditions, basal-medium was supplemented with 10 mmol/L β-glycerophosphate, 50 μg/mL 1-ascorbic acid, and 100 nM dexamethasone, as previously described (Richards et al., “Side-Specific Endothelial-Dependent Regulation of Aortic Valve Calcification: Interplay of Hemodynamics and Nitric Oxide Signaling,” Am J Pathol. 182:1922-1931 (2013), which is hereby incorporated by reference in its entirety). […]

[5] = tested on: valve endothelial cells (VEC); assay: EndMT in VEC: VE-cadherin, αSMA, SNAI1 by RT-PCR and immunofluorescence; assay type: cell-based, porcine; conditions: GM+TNFα 30 ng/mL, 48 h
Description: Scale bar is 20 μm. […] Scale bar is […]. […] Arrows indicate cells coexpressing CD31 and αSMA. Scale bar is 100 μm. […] Asterisks indicate β-gal-positive cells in interstitial space. Scale bar is […]. CTL indicates control; GM, basal growth medium; and LDLR, low-density lipoprotein receptor.
3D Hydrogel Culture Model Preparation. Cellularized type II collagen hydrogels were prepared as previously described (Butcher et al., “Valvular Endothelial Cells Regulate the Phenotype of Interstitial Cells in Co-Culture: Effects of Steady Shear Stress,” Tissue Eng. 12:905-915 (2006), which is hereby incorporated by reference in its entirety)). Briefly, porcine aortic valve endothelial cells were topically seeded at 50,000 cell/cm^2 density, whereas porcine aortic valve interstitial cells were encapsulated within the neutralized collagen gel suspension (2 mg/mL) at 1,000,000 cells/mL density. Constructs were allowed to gel for 1 hour at 37° C., 5% CO2, and then cultured overnight in their respective basal-medium conditions. For osteogenic differentiation conditions, basal-medium was supplemented with 10 mmol/L β-glycerophosphate, 50 μg/mL 1-ascorbic acid, and 100 nM dexamethasone, as previously described (Richards et al., “Side-Specific Endothelial-Dependent Regulation of Aortic Valve Calcification: Interplay of Hemodynamics and Nitric Oxide Signaling,” Am J Pathol. 182:1922-1931 (2013), which is hereby incorporated by reference in its entirety). For exogenous TNFα administration, recombinant human TNFα was added to appropriate media condition before administration at 30 ng/mL.
Quantitative Real-Time Polymerase Chain Reaction. Total RNA was extracted using a RNeasy total RNA purification kit (Qiagen, Valencia, CA), and RNA was reverse transcribed to cDNA using the iScript cDNA synthesis kit (Bio-Rad, Hercules, CA). Quantitative RT-PCR was performed on all samples using SYBR Green PCR master mix (Applied Biosystems, Foster City, CA) and a CFX96 or MiniOpticon Real-Time PCR Detection System (Bio-Rad, Hercules, CA). Samples amplifying at >37 cycles were considered nondetectable.
For in vitro cultures, intact collagen gels were rinsed twice in PBS and fixed in 4% paraformaldehyde for 1 hour at 25° C. Samples were rinsed 3× on a rocker with PBS for 15 minutes each, permeabilized with 0.2% Triton-X (VWR International, West Chester, PA) for 10 minutes on rocker, and blocked in 10% goat serum for 1 hour at 25° C.

RANKL = molecular target: T1, RANKL (Mus musculus, UniProt O35235); conditions: literature (Weiss et al. 2013); cited from earlier work
T1 construct: host or cells: hypercholesterolemic mice (in vivo, endogenous protein)
T1 sequence (O35235 1-316): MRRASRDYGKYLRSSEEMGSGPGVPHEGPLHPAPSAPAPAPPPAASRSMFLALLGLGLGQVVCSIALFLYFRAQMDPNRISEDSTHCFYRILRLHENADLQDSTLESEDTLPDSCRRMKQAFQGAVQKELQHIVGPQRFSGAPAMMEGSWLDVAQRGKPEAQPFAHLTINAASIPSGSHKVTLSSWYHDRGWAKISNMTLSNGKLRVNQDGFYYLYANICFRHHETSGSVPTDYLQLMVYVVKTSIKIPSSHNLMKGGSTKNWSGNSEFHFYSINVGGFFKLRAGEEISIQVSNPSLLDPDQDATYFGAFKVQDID

[6] = LDLR−/− mice on high fat diet, treatment from 6 months, read at 8 months, vs control LDLR−/− given 10% DMSO/PBS

## Cc1ccc(S(=O)(=O)/C=C/C#N)cc1 [BAY11-7082]
[1]; [6]
  aortic valve peak velocity: lessened increase
  ejection fraction velocity ratio (EFVR): lessened
[1]; female vs male LDLR−/− mice, 8 weeks treatment
  hemodynamic effect by sex: significantly affected both female and male mice
[2]
  calcium deposition on the aortic valves (Alizarin red staining): less calcium deposition
[3]
  collagen type 1A (Col1A) mRNA expression in aortic valve tissue: significantly decreased
  intercellular adhesion molecule 1 (ICAM1) mRNA expression in aortic valve tissue: significantly decreased
[4]
  treatment of septic shock or ischemic reperfusion injury: effective

## TNFα
Porcine aortic VEC
  calcium deposition (ARS): significantly increased
NFκB p65
  p65 nuclear localization: required to induce p65 nuclear localization
[5]
  EndMT induction: induced EndMT
  SNAI1 gene expression: significantly increased
  VE-cadherin gene expression (CDH5): reduction in gene expression
  αSMA expression: increased

## osteoprotegerin: decoy receptor for RANKL
RANKL
  CAVD calcification: mitigates CAVD calcification

Source: patent publication US20240216325A1, “NUCLEAR FACTOR KAPPA B PATHWAY INHIBITION TO ARREST CALCIFIC AORTIC STENOSIS” (CORNELL UNIVERSITY, priority 2019, published 2024)
